Consider 20 compounds from patent US6297274A, “Nonpeptide endothelin antagonists with increased water solubility” (priority 1998, dated 2001).

Series [1] concerns the target T1, human ETA R (Homo sapiens, UniProt P25101).
T1 sequence (P25101 21-427): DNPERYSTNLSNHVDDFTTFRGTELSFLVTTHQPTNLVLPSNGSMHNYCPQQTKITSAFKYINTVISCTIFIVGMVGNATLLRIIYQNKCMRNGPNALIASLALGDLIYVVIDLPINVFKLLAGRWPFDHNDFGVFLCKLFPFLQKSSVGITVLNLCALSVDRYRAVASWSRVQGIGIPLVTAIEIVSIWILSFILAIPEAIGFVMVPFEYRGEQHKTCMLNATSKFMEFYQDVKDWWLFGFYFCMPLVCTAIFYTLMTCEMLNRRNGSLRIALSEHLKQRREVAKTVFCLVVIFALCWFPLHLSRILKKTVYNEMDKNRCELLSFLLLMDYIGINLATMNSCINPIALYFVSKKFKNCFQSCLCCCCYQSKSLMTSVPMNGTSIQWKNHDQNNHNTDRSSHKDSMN
The series can be described thus: biochemical. Format: binding. Particulars: read-out: HERBA-A IC50. On the procedure:
(§1) The following cultured cells were used in binding experiments: CHO-K1 cells expressing recombinant human ETB R (HERBA B), or Ltk-cells expressing human ETA R (HERBA A). […] Membranes were prepared from cultured cells by lysing cells in cold lysis buffer (5 mM HEPES, 2 mM EDTA, pH 7.4) and homogenizing with a Dounce "A" homogenizer. […] Radioligand and competing ligands were prepared in binding buffer containing 20 mM Tris, 2 mM EDTA, and 0.1% BSA.
(§2) The assay was terminated by filtration over Whatman GF/B filters that were presoaked with 50 mM Tris, pH 7.4, containing 0.2% BSA and 100 μM bacitracin. […] binding was defined as total binding minus nonspecific binding.

Series [2] addresses T2, recombinant human ETB R (Homo sapiens, UniProt P24530).
T2 sequence (P24530 27-442): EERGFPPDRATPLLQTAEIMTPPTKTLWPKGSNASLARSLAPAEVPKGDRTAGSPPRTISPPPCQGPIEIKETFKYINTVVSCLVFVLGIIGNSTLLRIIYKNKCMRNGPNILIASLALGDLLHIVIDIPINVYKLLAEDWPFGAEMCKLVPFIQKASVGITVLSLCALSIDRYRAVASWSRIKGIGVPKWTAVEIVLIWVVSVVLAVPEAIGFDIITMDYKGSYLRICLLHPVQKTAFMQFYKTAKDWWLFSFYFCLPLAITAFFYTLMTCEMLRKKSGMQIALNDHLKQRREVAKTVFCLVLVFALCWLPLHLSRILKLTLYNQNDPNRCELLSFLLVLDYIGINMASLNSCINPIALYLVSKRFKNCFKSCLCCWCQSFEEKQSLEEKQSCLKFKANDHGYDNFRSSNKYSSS
The series can be described thus: biochemical. The format is binding. Particulars: read-out: HERBA-B IC50. On the procedure: as §1, §2

The target in series [3] is T3, ET-1 stimulated vasoconstriction, rabbit femoral artery (Oryctolagus cuniculus, UniProt A5A8K3).
T3 sequence (A5A8K3 21-427): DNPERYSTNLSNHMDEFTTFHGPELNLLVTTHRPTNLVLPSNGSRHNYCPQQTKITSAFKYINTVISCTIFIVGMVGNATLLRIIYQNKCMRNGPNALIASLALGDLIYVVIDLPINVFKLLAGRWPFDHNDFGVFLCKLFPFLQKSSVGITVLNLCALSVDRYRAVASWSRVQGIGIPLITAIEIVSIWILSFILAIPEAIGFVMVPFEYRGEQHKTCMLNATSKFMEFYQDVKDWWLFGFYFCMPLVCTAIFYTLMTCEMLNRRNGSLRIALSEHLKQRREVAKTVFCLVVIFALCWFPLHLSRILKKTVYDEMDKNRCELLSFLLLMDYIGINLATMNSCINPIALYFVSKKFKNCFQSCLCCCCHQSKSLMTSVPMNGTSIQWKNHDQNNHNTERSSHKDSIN
Particulars: read-out: VERA-A pA2 (converted). The text has this:
In vitro and in vivo studies with a series of hexapeptide endothelin antagonists. J. Cardiovasc. […] The data are presented as pA2 values.

Series [4] can be described thus: physchem. Particulars: water.
For series [5], the system named is rat hypoxia model of hypertension. Particulars: cited from earlier work.
The test system of series [6] is cerebral hemisphere of cats following middle cerebral artery occlusion. Particulars: IV; cited from earlier work.
The mark [7] stands for this setting: human cloned receptor ETA, [125I]-ET-1 (40 pM), 2 hours, 37 °C.
Where [8] appears, read: human cloned receptor ETB, [125I]-ET-1 (40 pM), 2 hours, 37 °C.

Where a name gives a salt, the structure may show the parent alone. Read-outs that look alike come from different tables or passages of the source. Where only a bound is given, the exact number is not on record here.

On to `COc1ccc(C2(O)OC(=O)C(c3ccc4c(c3)OCO4)=C2Cc2cc(OC)c(OC)c(OCC(=O)NCCN3CCOCC3)c2)cc1` (stereo not drawn) [Example 3, 2-{5-[4-Benzo[1,3]dioxol-5-yl-2-hydroxy-2-(4-methoxy-phenyl)-5-oxo-2,5-dihydro-furan-3-ylmethyl]-2,3-dimethoxy-phenoxy}-N-(2-morpholin-4-yl-ethyl)-acetamide], for which the IC50 is 2 nM in series [1] (setting [7]) and more than 2500 nM in series [2] (setting [8]).
For the compound `COc1ccc(C2(O)OC(=O)C(c3ccc4c(c3)OCO4)=C2Cc2cc(OC)c(OC)c(OCC(=O)NCCN3CCOCC3)c2)cc1` (stereo not drawn) [Example 4], in series [1] (setting [7]), the IC50 is 1 nM. Further, in series [3], the Kb was 100 nM.
As for `COc1ccc(C2(O)OC(=O)C(c3ccc4c(c3)OCO4)=C2Cc2cc(OC)c(OCCN3CCOCC3)c(OCCN3CCOCC3)c2)cc1` (stereo not drawn) [Example 9, 3-Benzo[1,3]dioxol-5-yl-5-hydroxy-4-[3-methoxy-4,5-bis-(2-morpholin-4-yl-ethoxy)-benzyl]-5(4-methoxy-phenyl)-5H-furan-2-one 2-hydroxyethanesulfonate], the IC50 in series [1] (setting [7]) is 180 nM; in series [2] (setting [8]), more than 25000 nM.
`COc1ccc(C2(O)OC(=O)C(c3ccc4c(c3)OCO4)=C2Cc2cc(OC)c(OC)c(OCCN(C)C)c2)cc1` (stereo not drawn) [Example 11, 3-Benzo[1,3]dioxyl-5-yl-4-[3-(2-dimethylamino-ethoxy)-4,5-dimethoxy-benzyl]-5-hydroxy-5-(4-methoxy-phenyl)-5H-furan-2-one 2-hydroxyethanesulfonate] came in with a solubility in series [4] of more than 25 mg/mL.
Turning to `COc1ccc(C2(O)OC(=O)C(c3cc(OC)cc(OC)c3)=C2Cc2cc(OC)c(OC)c(OCCN(C)C)c2)cc1` (stereo not drawn) [Example 16], the IC50 was 2 nM in series [1] (setting [7]) and more than 2500 nM in series [2] (setting [8]).
In the same order, the values of `COc1ccc(C2(O)OC(=O)C(c3cc(OC)cc(OC)c3)=C2Cc2cc(OC)c(OC)c(OCCCN3CCN(C)CC3)c2)cc1` (stereo not drawn) [Example 17, 4-{3,4-Dimethoxy-5-[3-(4-methyl-piperazzin-1-yl)-propoxy]-benzyl}-3-(3,5-dimethoxy-phenyl)-5-hydroxy-5-(4-methoxy-phenyl)-5-hydroxy-5-(4-methoxy-phenyl)-5H-furan-2-one] are 12.5 nM and more than 2500 nM.
For `COc1ccc(C2(O)OC(=O)C(c3ccc4c(c3)OCO4)=C2Cc2cc(OC)c(OC)c(OCCCS(=O)(=O)O)c2)cc1` (stereo not drawn) [Example 26], the solubility in series [4] is more than 80 mg/mL.
In the case of `COc1cc(CC2=C(c3ccc4c(c3)OCO4)C(=O)OC2(O)c2ccc(OCCN3CCOCC3)cc2)cc(OC)c1OC` (stereo not drawn) [Example 27, 3-Benzo[1,3]dioxol-5-yl-5-hydroxy-5-[4-(2-morpholin-4-ethoxy)-phenyl]-4-(3,4,5-trimethoxy-benzyl)-5H-furan-2-one], the results for the IC50 in series [1] (setting [7]) and in series [2] (setting [8]) were 14 nM and 3350 nM, respectively.
Turning to `COc1cc(CC2=C(c3ccc4c(c3)OCO4)C(=O)OC2(O)c2ccc(OCCN3CCOCC3)cc2)cc(OC)c1OC` (stereo not drawn) [Example 28, 3-Benzo[1,3]dioxol-5-yl-5-hydroxy-5-[4-(2-morpholin-4-yl-ethoxy)-phenyl]-4-(3,4,5-trimethoxy-benzyl)-5H-furan-2-one 2-hydroxyethanesulfonate], the IC50 in series [1] came out at 12 nM; in series [2] (setting [8]), 4100 nM.
As for `COc1cc(CC2=C(c3ccc4c(c3)OCO4)C(=O)OC2(O)c2ccc(OCCCN(C)C)cc2)cc(OC)c1OC` (stereo not drawn) [Example 29, 3-Benzo[1,3]dioxol-5-yl-5-[4-(3-dimethylamino-propoxy)-phenyl]-5-hydroxy-4-(3,4,5-trimethoxy-benzyl)-5H-furan-2-one], the IC50 in series [1] (setting [7]) amounted to 40 nM; in series [2] (setting [8]) it was 17000 nM.
For the compound `COc1cc(CC2=C(c3ccc4c(c3)OCO4)C(=O)OC2(O)c2ccc(OCCCN(C)C)cc2)cc(OC)c1OC` (stereo not drawn) [Example 30, 3-Benzo[1,3]dioxol-5-yl-5-[4-(3-dimethylamino-propoxy)-phenyl]-5-hydroxy-4-(3,4,5-trimethoxy-benzyl)-5H-furan-2-one 2-hydroxyethanesulfonate], the IC50 in series [1] (setting [7]) was 180 nM; in series [2] (setting [8]), more than 2500 nM.
Take `CNc1cccc(CC2=C(c3ccc4c(c3)OCO4)C(=O)OC2(O)c2ccc(OC)cc2)c1` (stereo not drawn) [Example 31, 3-Benzo[1,3]dioxol-5-yl-5-hydroxy-5-(4-methoxy-phenyl)-4-(3-methylamino-benzyl)-5H-furan-2-one]: the IC50 in series [1] (setting [7]) is 2 nM; in series [2] (setting [8]) it was 2700 nM.
Taken in the same sequence, the figures for `COc1ccc(C2(O)OC(=O)C(c3ccc4c(c3)OCO4)=C2Cc2cccc(CN(C)C)c2)cc1` (stereo not drawn) [Example 32] were 4 nM and 900 nM.
As for `COc1ccc(C2(O)OC(=O)C(c3ccc4c(c3)OCO4)=C2Cc2cccc(CN(C)C)c2)cc1` (stereo not drawn) [Example 33, 3-Benzo[1,3]dioxol-5-yl-4-(3-dimethylaminomethyl-benzyl)-5-hydroxy-5-(4-methoxy-phenyl)-5H-furan-2-one 2-hydroxyethanesulfonate], the IC50 came out at 1.2 nM in series [1] (setting [7]) and 470 nM in series [2] (setting [8]). In addition, in series [3] (ET-1 stimulated vasoconstriction, rabbit femoral artery), the Kb was 200 nM.
On to `COc1ccc(C2(O)OC(=O)C(c3cc(OC)c4c(c3)OCO4)=C2Cc2cccc(CN(C)C)c2)cc1` (stereo not drawn) [Example 34, 4-(3-Dimethylaminomethyl-benzyl)-5-hydroxy-3-(7-methoxy-benzo[1,3]dioxol-5-yl)-5-(4-methoxy-phenyl)-5H-furan-2-one], for which the IC50 is 0.6 nM in series [1] (setting [7]) and 110 nM in series [2] (setting [8]).
`COc1ccc(C2(O)OC(=O)C(c3cc(OC)c4c(c3)OCO4)=C2Cc2cccc(CN(C)C)c2)cc1` (stereo not drawn) [Example 35, 4-(3-Dimethylaminomethyl-benzyl)-5-hydroxy-3-(7-methoxy-benzo[1,3]dioxol-5-yl)-5-(4-methoxy-phenyl)-5H-furan-2-one 2-hydroxyethanesulfonate]: the IC50 in series [1] (setting [7]) is 1 nM; in series [2] (setting [8]), 210 nM.
For the compound `COc1ccc(C2(O)OC(=O)C(c3ccc4c(c3)OCO4)=C2Cc2cc(OC)c(OC)c(OCCN3CCOCC3)c2)cc1` (stereo not drawn) [Example 37, 3-Benzo[1,3]dioxol-5-yl-4-[3,4-dimethoxy-5-(2-morpholin-4-yl-ethoxy)-benzyl]-5-hydroxy-(4-methoxy-phenyl)-5-furan-2-one 2-hydroxyethanesulfonate], the solubility in series [4] was more than 25 mg/mL.
Turning to `COc1ccc(C2(O)OC(=O)C(c3ccc4c(c3)OCO4)=C2Cc2cc(OC)c(OC)c(OC)c2)c(OCCCN(C)C)c1` (stereo not drawn) [Example 38, 3Benzo[1,3]dioxol-5-yl-5-[2-(3-dimethylamino-propoxy)-4-methoxy-phenyl]-5-hydroxy-4-(3,4,5-trimethoxy-benzyl)-5H-furan-2-one], the IC50 was determined as 1 nM in series [1] (setting [7]) and 800 nM in series [2] (setting [8]). Further, the Kb in series [3] was 100 nM.
Turning to `COc1ccc(C2(O)OC(=O)C(c3ccc4c(c3)OCO4)=C2Cc2cc(OC)c(OC)c(OC)c2)cc1` (stereo not drawn) [PD 156707], the “pulmonary vascular resistance and pulmonary arterial pressure” value in series [5] was “provide protection in a rat hypoxia model of hypertension by lowering the increase in pulmonary vascular resistance and pulmonary arterial pressure”. Moreover, the “volume of ischemic damage in the cerebral hemisphere” value in series [6] is recorded as “significantly reduced”.
As for `COc1ccc(C(=O)C(Cc2cccc(CN(C)C)c2)=C(C(=O)O)c2cc(OC)c3c(c2)OCO3)cc1` [sodium salt], the figures for the IC50 in series [1] and in series [2] were 2 nM and 300 nM, respectively.

A word on the IC50: it is the concentration that gives 50% inhibition. For orientation: solubility means the dissolved amount per volume that the medium holds. Higher therefore signals a readily soluble substance.
